The test system of one assay is H929 cells. The assay can be described thus: Cell viability assay (H929 10 FBS). The format is cell-based. The note with it: Homo sapiens, NCI-H929, 24 hours, read-out: H929_10FBS IC50. The essentials: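 ATP-based luminescence (CellTiter-Glo or ATPlite 1 Step, 30-60 min at RT) gauged viability of H929 myeloma cells after 24 h compound treatment at 37 °C. Cells plated at 4000 per well in 10% FBS RPMI 1640 supplemented with pyruvate, HEPES and glucose.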

Another assay deals with MCL-1 (Homo sapiens (Human), UniProt Q07820). The assay can be described thus: Cell free Mcl-1:Bim affinity assay (fluorescence polarization competition). In kind it is binding. The conditions noted are these: 15 nM MCL-1, 5 nM FITC-Bim, 1 hour at room temperature, read-out: BIM_Ki. In a few lines: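 Fluorescence polarization competition: 10-point 3-fold compound dilutions displaced 5 nM FITC-Bim from 15 nM MCL-1 over 1 h at room temperature. Ki was derived from the fitted IC50 using the Nikolovska-Coleska equation, with percent inhibition normalized to DMSO and positive controls.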
Sequence of MCL-1 (Q07820 whole entry): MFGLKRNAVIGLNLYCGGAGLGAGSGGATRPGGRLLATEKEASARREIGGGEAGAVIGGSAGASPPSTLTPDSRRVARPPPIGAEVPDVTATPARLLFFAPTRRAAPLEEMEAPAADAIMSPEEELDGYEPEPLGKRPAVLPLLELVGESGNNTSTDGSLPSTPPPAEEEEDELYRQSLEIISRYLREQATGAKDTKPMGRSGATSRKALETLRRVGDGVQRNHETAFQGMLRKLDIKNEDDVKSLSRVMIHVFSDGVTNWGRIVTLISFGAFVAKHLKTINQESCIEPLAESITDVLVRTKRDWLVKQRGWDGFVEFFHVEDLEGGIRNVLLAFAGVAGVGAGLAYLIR

pIC50, pKi: −log10 of the molar value. Like-named read-outs stand apart in the source and are kept apart here.

For orientation: pIC50 means the negative decadic logarithm of the IC50, by convention in mol/L.

Turning to `CO[C@@H]1/C=C/CN(C(C)=O)[C@H](C)C(=O)NS(=O)(=O)c2ccc3c(c2)N(C[C@@H]2CC[C@H]21)C[C@@]1(CCCc2cc(Cl)ccc21)CO3` [Example 133, (3R,6R,7R,8E,12R,22S)-6′-Chloro-7-methoxy-11-acetyl-12-methyl-15,15-dioxo-spiro[20-oxa-15-thia-1,11,14-triazatetracyclo[14.7.2.03,6.019,24]pentacosa-8,16(25),17,19(24)-tetraene-22,1′-tetralin]-13-one], in the assay on H929 cells, the pIC50 was under 6.00. The pKi on MCL-1 (class symbols) is 7.00 to 9.00.
The corresponding values for `CO[C@@H]1/C=C/COC2(CC2)C(=O)NS(=O)(=O)c2ccc3c(c2)N(C[C@@H]2CC[C@H]21)C[C@@]1(CCCc2cc(Cl)ccc21)CO3` [Example 29, (3R,6R,7R,8E,22S)-6′-Chloro-7-methoxy-12,12-ethylene-15,15-dioxo-spiro[[11,20]dioxa-15-thia-1,14-diazatetracyclo[14.7.2.03,6.019,24]pentacosa[8,16(25),17,19(24)]tetraene-22,1′-tetralin]-13-one] are over 6.00 and over 9.00.
For the compound `O=C1Cc2ccn(n2)CC(=O)N2CCC(C2)CN2C[C@@]3(CCCc4cc(Cl)ccc43)COc3ccc(cc32)S(=O)(=O)N1` (stereo partly drawn) [Example 297, (23S)-6′-Chloro-16,16-dioxo-spiro[21-oxa-thia-1,6,9,15,27-pentazapentacyclo[15.7.2.13,6.19,12.020,25]octacosa-10,12(27),17,19,25-pentaene-23,1′-tetralin]-7,14-dione], the pIC50 in the assay with H929 cells is under 6.00. Also, the pKi at MCL-1 (class symbols) is 7.00 to 9.00.
The corresponding values for `CN(C(=O)O[C@H]1/C=C/COC(C)(C)C(=O)NS(=O)(=O)c2ccc3c(c2)N(C[C@@H]2CC[C@H]21)C[C@@]1(CCOc2cc(Cl)ccc21)CO3)C1CCOCC1` [Example 304, [(3R,6R,7S,8E,22S)-7′-Chloro-12,12-dimethyl-13,15,15-trioxo-spiro[11,20-dioxa-15-thia-1,14-diazatetracyclo[14.7.2.03,6.019,24]pentacosa-8,16,18,24-tetraene-22,4′-chromane]-7-yl] N-methyl-N-tetrahydropyran-4-yl-carbamate] are over 6.30 and over 9.00.
For `CC1(C)OC/C=C/[C@H](OCC(=O)NC2CCOCC2)[C@@H]2CC[C@H]2CN2C[C@@]3(CCCc4cc(Cl)ccc43)COc3ccc(cc32)S(=O)(=O)NC1=O` [Example 282, 2-[(3R,6R,7S,8E,22S)-6′-Chloro-12,12-dimethyl-13,15,15-trioxo-spiro[11,20-dioxa-15λ6-thia-1,14-diazatetracyclo[14.7.2.03,6.019,24]pentacosa-8,16,18,24-tetraene-22,1′-tetralin]-7-yl]oxy-N-tetrahydropyran-4-yl-acetamide] the same measures were over 6.30 and over 9.00.
As to `CC1(C)OC/C=C/[C@H](OC(=O)N2CC(F)C2)[C@@H]2CC[C@H]2CN2C[C@@]3(CCCc4cc(Cl)ccc43)COc3ccc(cc32)S(=O)(=O)NC1=O` [Example 165, [(3R,6R,7S,8E,22S)-6′-Chloro-12,12-dimethyl-13,15,15-trioxo-spiro[11,20-dioxa-15-thia-1,14-diazatetracyclo[14.7.2.03,6.019,24]pentacosa-8,16,18,24-tetraene-22,1′-tetralin]-7-yl] 3-fluoroazetidine-1-carboxylate], the pIC50 with H929 cells was over 6.30. Further, the pKi at MCL-1 (class symbols) is over 9.00.
Consider `CO[C@H]1/C=C/C[C@H](C)[C@@H](C)C(=O)NS(=O)(=O)c2ccc3c(c2)N(C[C@@H]2CC[C@H]21)C[C@@]1(CCCc2cc(Cl)ccc21)CO3` [Example 79, (3R,6R,7S,8E,11S,12R,22S)-6′-Chloro-7-methoxy-11,12-dimethyl-15,15-dioxo-spiro[20-oxa-15-thia-1,14-diazatetracyclo[14.7.2.03,6.019,24]pentacosa-8,16,18,24-tetraene-22,1′-tetralin]-13-one], for which the pIC50 in the assay with H929 cells was under 6.00. Also, the pKi at MCL-1 (class symbols) is 7.00 to 9.00.
With `CCNC(=O)O[C@H]1/C=C/CN(C)C(C)(C)C(=O)NS(=O)(=O)c2ccc3c(c2)N(C[C@@H]2CC[C@H]21)C[C@@]1(CCCc2cc(Cl)ccc21)CO3` [Example 204, [(3R,6R,7S,8E,22S)-6′-Chloro-11,12,12-trimethyl-13,15,15-trioxo-spiro[20-oxa-15-thia-1,11,14-triazatetracyclo[14.7.2.03,6.019,24]pentacosa-8,16,18,24-tetraene-22,1′-tetralin]-7-yl] N-ethylcarbamate], the pIC50 with H929 cells was over 6.30. Further, the pKi at MCL-1 (class symbols) was over 9.00.
`CC(C)C(=O)NS(=O)(=O)c1ccc2c(c1)N(CC1CCC1)CC1(CCCc3cc(Cl)ccc31)CO2` (centres unmarked) [Example 6, N-[6′-Chloro-5-(cyclobutylmethyl)spiro[2,4-dihydro-1,5-benzoxazepine-3,1′-tetralin]-7-yl]sulfonyl-2-methyl-propanamide]: the pIC50 in the assay with H929 cells was under 6.00. For the same compound, the pKi at MCL-1 (numeric values) is 7.45.
As for `CN1CCN(CCO[C@H]2/C=C/COC(C)(C)C(=O)NS(=O)(=O)c3ccc4c(c3)N(C[C@@H]3CC[C@H]32)C[C@@]2(CCCc3cc(Cl)ccc32)CO4)CC1` [Example 259, (3R,6R,7S,8E,22S)-6′-Chloro-12,12-dimethyl-7-[2-(4-methylpiperazin-1-yl)ethoxy]-15,15-dioxo-spiro[11,20-dioxa-15-thia-1,14-diazatetracyclo[14.7.2.03,6.019,24]pentacosa-8,16,18,24-tetraene-22,1′-tetralin]-13-one], the pIC50 in the assay with H929 cells is over 6.30. The pKi at MCL-1 (class symbols) is over 9.00.
Regarding `CO[C@@H]1/C=C/C[C@H](C)[C@@H](CC(=O)N2CC(F)(F)C2)C(=O)NS(=O)(=O)c2ccc3c(c2)N(C[C@@H]2CC[C@H]21)C[C@@]1(CCCc2cc(Cl)ccc21)CO3` [Example 90, (3R,6R,7R,8E,11S,12R,22S)-6′-Chloro-12-[2-(3,3-difluoroazetidin-1-yl)-2-oxo-ethyl]-7-methoxy-11-methyl-15,15-dioxo-spiro[20-oxa-15-thia-1,14-diazatetracyclo[14.7.2.03,6.019,24]pentacosa-8,16,18,24-tetraene-22,1′-tetralin]-13-one], the pIC50 in the assay with H929 cells was under 6.00. For the same compound, at MCL-1 (class symbols), the pKi was over 9.00.
The corresponding values for `CN(C)C(=O)O[C@H]1/C=C/CN(C)C2(CCC2)C(=O)NS(=O)(=O)c2ccc3c(c2)N(C[C@@H]2CC[C@H]21)C[C@@]1(CCCc2cc(Cl)ccc21)CO3` [Example 48, [(3R,6R,7R,8E,22S)-6′-Chloro-11-methyl-12,12-(1,3-propylene)-13,15,15-trioxo-spiro[20-oxa-15-thia-1,11,14-triazatetracyclo[14.7.2.03,6.019,24]pentacosa-8,16,18,24-tetraene-22,1′-tetralin]-7-yl] N,N-dimethylcarbamate] are over 6.30 and over 9.00.
With `CO[C@@H]1CCN(C(=O)O[C@H]2/C=C/COC3(CCC3)C(=O)NS(=O)(=O)c3ccc4c(c3)N(C[C@@H]3CC[C@H]32)C[C@@]2(CCCc3cc(Cl)ccc32)CO4)C1` [Example 229, [(3R,6R,7S,8E,22S)-6′-Chloro-12,12-(1,3-propylene)-13,15,15-trioxo-spiro[11,20-dioxa-15-thia-1,14-diazatetracyclo[14.7.2.03,6.019,24]pentacosa-8,16,18,24-tetraene-22,1′-tetralin]-7-yl] (3S)-3-methoxypyrrolidine-1-carboxylate], the pIC50 with H929 cells is over 6.30. For the same compound, the pKi on MCL-1 (class symbols) was over 9.00.

These data come from US11130769B2 (Prelude Therapeutics Incorporated, priority 2018, dated 2021).
